The test system of series [1] is erythrocyte aggregation reaction. Nature of the series: membrane-stabilizing effect: erythrocyte aggregation reaction caused by a gelatine solution, in vitro and in vivo. Type of series: cell-based.
Series [2] can be described thus: embryotoxic effects in rats. Type of series: in vivo. The text has this:
The preparation was examined for possible embryotoxic effects in rats.

On the set-up of series [3]: species or system human patients. The note with it: human, in vivo. On the procedure:
(§1) The course of treatment lasted 3 to 4 weeks. In individual cases, the preparation was given once daily for 1 to 5 days as a symptomatic remedy (analgesic and antipyretic).
(§2) The effectiveness of the preparation was assessed by changes in complaints, clinical observation results (temperature, sensation of pain, local manifestations of the inflammatory process) and laboratory examination data (changes patients' peripheral blood picture, albumin fractions, glycoproteins and sialic acids content in blood serum, examination of stools for occult blood before and after treatment, etc.).
Clinicians hold the option that tolerance to the preparation is good.

Series [4] is described as follows: comparison of activity with acetylsalicylic acid, all experimental studies. Type of series: in vivo. The note with it: Table 2.
On the set-up of series [5]: species or system human patients. The note with it: human, in vivo. From the text:
On the basis of these experimental data, the preparation was used clinically for the treatment of patients with chronic polyarthritis accompanied by gastrointestinal pathology, namely duodenal ulcer in the stage of remission. […] In view of the above, and also in view of the new preparation's general good tolerance, it may be used in patients with accompanying diseases of the organs of the alimentary system, which are contraindications to the use of most of the antiinflammatory remedies.
The source holds these as a separate data set.

Another series can be described thus: antibacterial action. The conditions noted are these: in contrast to brufen.
Series [6] deals with cells of the amnionic membrane. Type of series: cell-based, human.
Series [7] in a line: Aerosol-induced edema of paw in rats (subacute test), exudative process. Type of series: in vivo. From the text:
Aerosol-induced edeima of
ry paw in rats (subacute test)

A short description of the next series: yeast fever in rats. Type of series: in vivo.
The nature of series [8]: tests in adrenalectomized animals. Type of series: in vivo.
The nature of series [9]: influence on organ functions and internal organs of animals. Type of series: in vivo.
A short description of series [10]: acute toxicity in mice (oral, intraperitoneal). The conditions noted are these: for LD50: mouse, in vivo.
The conditions of series [11]: in vivo.
The conditions of series [12]: in vivo. This is another data set of the same source.
Series [13] in a line: carrageenin-induced inflammatory edema, comparison with literature data. Type of series: in vivo. On the technique in general: The carrageenan paw model is a standard test of acute inflammation.
A short description of series [14]: tolerance on oral administration for 2 to 4 months. Type of series: in vivo. The note with it: rats, rabbits and dogs, doses equal to 5% of LD50, 30 and 70 times the human dose. The text has this: These doses, which are conventionally therapeutic, and equal to 5% of the LD50 for these animals, exceeded 30 and 70 times the dose recommended for humans.
Another series in a line: acute toxicity in cats. Type of series: in vivo.
A short description of series [15]: phenamine hyperthermia in mice. Type of series: in vivo. From the text:
| Phenamine hyperthermia in

Series [16] can be described thus: clinical trials, therapeutic effect. Type of series: in vivo, human patients.
Excerpt: as §1
The main group of the patients given a course of treatment (203 persons), had the following diseases: rheumatism (active phase, 1st-2nd degree, according to A. I. Nesterov's classification) affecting the joints and heart (primary and recurrent rheumocarditis, heart disease of rheumatic etiology with symptoms of cardiac decompensation, of the 1-2A degree)--76 patients; polyarthritis (rheumatoid, exacerbation of chronic infectious, acute infectious-allergic, metabolic)--89 patients; arthrosis, spondylosis, exacerbation of chronic interstitial pneumonia--9 patients.
as §2

The nature of series [17]: tail burning test in mice. Type of series: in vivo. The conditions noted are these: for reduction of the reaction to a thermal irritant: mice. As for the experimental part:
(§3) For example, the preparation introduced orally to mice in 10 and 20 mg/kg doses reduced the reaction of the mice to a thermal irritant by 47-75% an hour after administration. Acetylsalicylic acid in 40-300 mg/kg doses causes an effect equal to 37-87%.

A short description of series [18]: carrageenin and aerosol-induced inflammatory edema, acute tests in mice. Type of series: in vivo. The conditions noted are these: single oral doses of 5 to 20 mg/kg.
On the set-up of series [19]: species or system rabbits. The note with it: rabbit, in vivo.
Series [20] in a line: implanted sterile paper balls, granuloma weight in rats. Type of series: in vivo. The conditions noted are these: 10 and 20 mg/kg. As for the experimental part: It was established in tests with rats with implanted sterile paper rolled into balls that 10 and 20 mg/kg doses of the preparation reduce the weight of the granulomas by 41-60% and, consequently, produce an inhibiting effect on proliferation processes during inflammation.

Series [21] is described as follows: comparison of analgesic ED50 values in three models (tail burning, writhing, electric current). Type of series: in vivo. The note with it: acetic acid writhing (mice), electric current (rats). On the procedure:
as §3
A general note: Writhing tests count abdominal constrictions after an irritant is injected.

The nature of series [22]: painful irritation of rat's paw with electric current. Type of series: in vivo, rats. The note with it: acetylsalicylic acid = 1.
Series [23] in a line: acute toxicity to anti-edematous action ratio (LD50/ED50) in mice. The conditions noted are these: oral administration, acetylsalicylic acid = 1. Type of series: in vivo.
Series [24] can be described thus: Aerosol-induced edema of paw in mice (acute test). The conditions noted are these: acetylsalicylic acid = 1. Type of series: in vivo. The text has this: Aerosol-induced edema of
paw in mice (acute test)

Series [25] can be described thus: acetic acid "writhing" in mice. Type of series: in vivo. The note with it: acetylsalicylic acid = 1.
The conditions of series [26]: brufen side effects, source not stated; cited from earlier work.
[27] abbreviates: rheumatic heart and joint disease.

Structures are written as SMILES. “Also recorded” adds a separate entry of the source.

As usually defined, the LD50 is the dose at which mortality reaches 50%. High values mean lower toxicity, low ones greater toxicity. For the compound `OC(Nc1nccs1)C(Cl)(Cl)Cl` (centres unmarked) [proposed preparation, 2,2,2-trichloro-1-(2-thiazolylamino)-ethanol], in series [1], the “membrane-stabilizing effect (erythrocyte aggregation reaction)” value is given as “mitigation of the erythrocyte aggregation reaction”. The “effect on development of the rat embryos” value in series [2] (55 mg/kg, 12 days from the 9th day of pregnancy) is “does not affect the development of the rat embryos”. Besides, in series [3], the contraindications entry was “No contraindications”; the “influence on peripheral blood composition” value is listed as “no influence on the peripheral blood composition”; the leukocyte count result was “diminished to norm in leukocytosis and increased in leukopenia”; the tolerance result is “good”. For the same compound, in series [4], the “activity compared with acetylsalicylic acid” value is “higher activity than acetylsalicylic acid; also recorded: superior to acetylsalicylic acid in all the main effects”. Moreover, in [5], the “exacerbation of the ulcerous disease” value was “did not cause an exacerbation of the ulcerous disease” and the “fecal reaction to occult blood” value is listed as “negative in all the patients”. Moreover, the antibacterial action result in the series “antibacterial action” is recorded as “moderately pronounced antibacterial action”. For the same compound, in series [6], the “toxic effect on cells of the amnionic membrane” value is on record as “nor does it have any toxic effect”. For the same compound, the “reduction of intensity of the exudative process” value in series [7] (rats, 10 mg/kg, within 3 hours after administration) is listed as “reducing its intensity by half”. Moreover, the “antipyretic effect compared with acetylsalicylic acid” value in the series “yeast fever in rats” (rats with yeast fever, 100 mg/kg) is given as “corresponds to that produced by a 300 mg/kg dose of acetylsalicylic acid”. In addition, in series [8], the “contribution of the adrenal system to antiinflammatory effect” value is “andrenal system contributes to the proposed preparation's antiinflammatory effect”. For the same compound, the “functions of the respiratory and cardiovascular systems” value in series [9] is recorded as “does not affect”. Further, the “absorption from the gastrointestinal tract compared with acetylsalicylic acid” value in series [10] (from enteral coefficient) is on record as “better absorption of the preparation from the gastrointestinal tract”. This compound also had an LD50 in series [10] (ip) of 708 mg/kg. In addition, the LD50 in [10] (po) turned out to be 1050 mg/kg. For the same compound, in [11], the “discomfort in the epigastral region” value is 1.6 % of cases, the drug dermatitis was determined as 2.4% and the “reversibility of side effects” value is “pass quickly once the preparation is discontinued”. Further, the “harmful effect on the gastrointestinal mucosa” value in series [12] was “no harmful effect on the gastrointestinal mucosa”. In addition, in [13], the “antiinflammatory activity compared with sodium salicylate, phenylbutazone, mephenamic acid (Ponstan) and brufen” value is “higher than that of sodium salicylate, phenylbutazone, mephenamic acid (Ponstan) and brufen”. For the same compound, in series [14], the “tolerance on long oral administration” value is listed as “well tolerated”. For the same compound, in the series “acute toxicity in cats” (acute toxicity, doses in excess of 1 g/kg), the picture of intoxication result is given as “pronounced inhibition in the animals into a state similar to the prenarcotic state”. For the same compound, the “dose causing symptoms of intoxication and death” value in the series “acute toxicity in cats” (cats) was above 1000 mg/kg. The phenamine hyperthermia result in [15] (mice, same dose (100 mg/kg) followed by phenamine) is reported as “do not manifest the usual hyperthermia”. The “patients with pronounced therapeutic effect, arthritis” value in series [16] (arthritis of different etiology, 89 patients) is 68%. Besides, in series [16] (arthrosis, spondylosis and exacerbation of chronic interstitial pneumonia), the “patients with similar therapeutic effect” value is on record as 65%. For the same compound, the “number of patients with pronounced therapeutic effect, arthritis” value in series [16] (out of 89) is on record as 61. Besides, in [16] (out of the 76 patients), the “number of patients with pronounced therapeutic effect, rheumatic” value is recorded as 61 patients. Moreover, the “drop in temperature, time” value in series [16] (patients) is given as “towards the end of the first week of therapy”. In series [16] (patients, 3 to 4 week course), the temperature after course entry was “completely normalized”. Moreover, the “general status, physical activity, symptoms of local inflammation” value in series [16] (patients, 4th to 9th day from beginning of treatment) was “improvement of the patient's general status, increasing physical activity, abatement of symptoms of local inflammation”. Also, in series [16] (setting [27]), the ECG indices result is recorded as “ECG indices improved: extrasystole disappeared, symptoms of myocardial anoxia diminished”; the “pain in the region of the heart” value is listed as “abated”; the “paraclinical data: albumin content and gamma-fraction of the blood” value is “a marked tendency towards a higher albumin content and the normalization of the gamma-fraction of the blood”; the “paraclinical data: leukocytes, ESR” value is on record as “disappearance of leukocytes drop of the ESR to normal”. Besides, the neurological status result in series [16] (rheumatic patients) was “improvement of their neurological status was observed, manifested by diminishing asthenia and irritability”. Also, the “patients with pronounced therapeutic effect, rheumatic” value in series [16] (rheumatic patients, 76 patients) amounted to 80%. The “reduction of the reaction to a thermal irritant” value in series [17] (oral, 10 and 20 mg/kg, an hour after administration) is recorded as 47-75%. Further, in series [18], the “reduction of the symptoms of exudation” value is on record as 17-62%. Further, the irritation of tissues entry in [19] is “does not cause irritation”. The “reduction of the weight of the granulomas” value in [20] is listed as 41-60%. Also, the analgesic effect result in [21] is “analgesic effect was proved by three methods”.
As for `CC(=O)Oc1ccccc1C(=O)O` [acetylsalicylic acid, reference compound], in series [2] (parallel comparative tests), the embryotoxic effect result was “produces an embryotoxic effect”. In addition, in series [7] (acetylsalicylic acid = 1), the “Relative activity, antiinflammatory, aerosol-induced edema of paw in rats (subacute test)” value is recorded as 1. Further, the “dose producing a similar effect, relative to the proposed preparation” value in series [7] (rats, same test conditions, subacute) came out at 30 times. The “Relative activity, analgesic, painful irritation of rat's paw with electric current” value in [22] was determined as 1. Further, the “Relative therapeutic index, acute toxicity to anti-edematous action ratio (LD50/ED50)” value in series [23] was determined as 1. Besides, the “Relative activity, antipyretic, yeast fever in rats” value in “yeast fever in rats” (acetylsalicylic acid = 1) is listed as 1. In addition, the enteral coefficient in series [10] (mice) was -1.8. Also, the LD50 stood at 1100 mg/kg in series [10] (ip) and 1910 mg/kg in series [10] (po). The “Relative activity, antipyretic, phenamine hyperthermia in mice” value in series [15] (acetylsalicylic acid = 1) was 1. In addition, in series [17] (acetylsalicylic acid = 1), the “Relative activity, analgesic, burning tail of mice” value is recorded as 1. Besides, the “reduction of the reaction to a thermal irritant” value in series [17] (40-300 mg/kg) was 37-87%. In addition, in [24], the “Relative activity, antiinflammatory, aerosol-induced edema of paw in mice (acute test)” value came out at 1. Also, in series [25], the “Relative activity, analgesic, acetic acid "writhing" in mice” value is reported as 1.
As for `CC(C)Cc1ccc(C(C)C(=O)O)cc1` (centres unmarked) [Brufen], in [26], the “abdominal pain and headaches” value is recorded as 11%; the allergic symptoms was 6-8%; the “dyspepsia, gastrointestinal hemorrhages, bronchospasm, thrombocytopenia, mental disorders, exacerbation of cholecystitis” value was 11-15%.
